# Assay results published in patent US10947254B2, “Methods for treating ulcerative colitis using 3-((1R,3s,5S)-3-((7-((5-methyl-1H-pyrazol-3-yl)amino)-1,6-naphthyridin-5-yl)amino)-8-azabicyclo[3.2.1]octan-8-yl)propanenitrile” (priority 2015, dated 2021).
# System: IL-13 induced STAT6 phosphorylation in BEAS-2B human lung epithelial cells
# Conditions: BEAS-2B cells
row,SMILES,BEAS2B pIC50
1,CCC(CC#N)N1[C@@H]2CC[C@H]1C[C@H](Nc1nc(Nc3cc(C)[nH]n3)cc3ncccc13)C2 (stereo partly drawn) [Example 1-22],A (A represents a pEC50 value ≥7.5 (EC50≤32 nM))
2,Cc1cc(Nc2cc3ncccc3c(N[C@@H]3C[C@H]4CC[C@@H](C3)N4C(=O)C(C)F)n2)n[nH]1 (stereo partly drawn) [Example 2-3],A (A represents a pEC50 value ≥7.5 (EC50≤32 nM))
3,Cc1cc(Nc2cc3ncccc3c(N[C@@H]3C[C@H]4CCC[C@@H](C3)N4C(=O)c3cncc(C#N)c3)n2)n[nH]1 [Example 2-26],C (C represents a pEC50 value <6.7 (EC50>200 nM))
4,Cc1cc(Nc2cc3ncccc3c(N[C@@H]3C[C@H]4CCC[C@@H](C3)N4C(=O)c3ccc(C#N)nc3)n2)n[nH]1 [Example 2-28],C (C represents a pEC50 value <6.7 (EC50>200 nM))
5,Cc1cc(Nc2cc3ncccc3c(N[C@@H]3C[C@H]4CCC[C@@H](C3)N4C(=O)c3ccnc(C#N)c3)n2)n[nH]1 [Example 2-30],C (C represents a pEC50 value <6.7 (EC50>200 nM))
6,COc1ccc2c(N[C@@H]3C[C@H]4CC[C@@H](C3)N4CCCC#N)nc(Nc3cc(C)[nH]n3)cc2n1 [Example 5-2],A (A represents a pEC50 value ≥7.5 (EC50≤32 nM))
7,C=CCOC(=O)N1[C@@H]2CC[C@H]1C[C@H](Nc1nc(Nc3cc(C)[nH]n3)cc3nc(OC)ccc13)C2 [Example 5-7],A (A represents a pEC50 value ≥7.5 (EC50≤32 nM))
8,C=CCOC(=O)N1[C@@H]2CC[C@H]1C[C@H](Nc1nc(Nc3cc(C)[nH]n3)cc3nc(CN4CCOCC4)ccc13)C2 [Example 5-17],A (A represents a pEC50 value ≥7.5 (EC50≤32 nM))
9,Cc1cc(Nc2cc3nc(CN4CCOCC4)ccc3c(N[C@@H]3C[C@H]4CCC[C@@H](C3)N4S(C)(=O)=O)n2)n[nH]1 [Example 5-22],A (A represents a pEC50 value ≥7.5 (EC50≤32 nM))
10,COc1cnc2cc(Nc3cc(C)[nH]n3)nc(N[C@@H]3C[C@H]4CC[C@@H](C3)N4C(=O)OCC(C)C)c2c1 [Example 6-25],A (A represents a pEC50 value ≥7.5 (EC50≤32 nM))
11,Cc1cc(Nc2cc3ncc(S(C)(=O)=O)cc3c(N[C@@H]3C[C@H]4CC[C@@H](C3)N4Cc3ccncc3)n2)n[nH]1 [Example 6-59],C (C represents a pEC50 value <6.7 (EC50>200 nM))

# System: IL-4 induced STAT6 phosphorylation in THP-1 human monocytic cells
# Conditions: THP-1 cells
row,SMILES,THP-1 IL4 pIC50
1,Cc1cc(Nc2cc3nc(CS(C)(=O)=O)ccc3c(N[C@@H]3C[C@H]4CC[C@@H](C3)N4CCF)n2)n[nH]1 [Example 5-41],C (C represents a pEC50 value <6.7 (EC50>200 nM))
2,Cc1cc(Nc2cc3nc(CS(C)(=O)=O)ccc3c(N[C@@H]3C[C@H]4CC[C@@H](C3)N4CCCF)n2)n[nH]1 [Example 5-42],C (C represents a pEC50 value <6.7 (EC50>200 nM))
3,Cc1cnc2cc(Nc3cc(C)[nH]n3)nc(N[C@@H]3C[C@H]4CC[C@@H](C3)N4Cc3ccncc3)c2c1 [Example 6-2],A (A represents a pEC50 value ≥7.5 (EC50≤32 nM))
4,COc1cnc2cc(Nc3cc(C)[nH]n3)nc(N[C@@H]3C[C@H]4CC[C@@H](C3)N4CCC#N)c2c1 [Example 6-11],A (A represents a pEC50 value ≥7.5 (EC50≤32 nM))
5,COc1cnc2cc(Nc3cc(C)[nH]n3)nc(N[C@@H]3C[C@H]4CCC[C@@H](C3)N4C(=O)CN(C)C)c2c1 [Example 6-30],C (C represents a pEC50 value <6.7 (EC50>200 nM))
6,COC(=O)c1cnc2cc(Nc3cc(C)[nH]n3)nc(N[C@@H]3C[C@H]4CC[C@@H](C3)N4CCC#N)c2c1 [Example 6-32],A (A represents a pEC50 value ≥7.5 (EC50≤32 nM))
7,COC(=O)c1cnc2cc(Nc3cc(C)[nH]n3)nc(N[C@@H]3C[C@H]4CC[C@@H](C3)N4C(=O)CN(C)C)c2c1 [Example 6-39],C (C represents a pEC50 value <6.7 (EC50>200 nM))
8,C=CCOC(=O)N1[C@@H]2CC[C@H]1C[C@H](Nc1nc(Nc3cc(C)[nH]n3)cc3ncc(C(=O)OC)cc13)C2 [Example 6-40],A (A represents a pEC50 value ≥7.5 (EC50≤32 nM))
9,COC(=O)c1cnc2cc(Nc3cc(C)[nH]n3)nc(N[C@@H]3C[C@H]4CC[C@@H](C3)N4CC(=O)OC(C)C)c2c1 [Example 6-41],A (A represents a pEC50 value ≥7.5 (EC50≤32 nM))
10,CNC(=O)CN1[C@@H]2CC[C@H]1C[C@H](Nc1nc(Nc3cc(C)[nH]n3)cc3ncc(C(=O)OC)cc13)C2 [Example 6-42],C (C represents a pEC50 value <6.7 (EC50>200 nM))
11,COC(=O)c1cnc2cc(Nc3cc(C)[nH]n3)nc(N[C@@H]3C[C@H]4CC[C@@H](C3)N4C[C@H]3CCC(=O)O3)c2c1 [Example 6-46],C (C represents a pEC50 value <6.7 (EC50>200 nM))
12,Cc1cc(Nc2cc3ncc(S(C)(=O)=O)cc3c(N[C@@H]3C[C@H]4CC[C@@H](C3)N4CCC#N)n2)n[nH]1 [Example 6-50],C (C represents a pEC50 value <6.7 (EC50>200 nM))
13,Cc1cc(Nc2cc3ncc(S(C)(=O)=O)cc3c(N[C@@H]3C[C@H]4CC[C@@H](C3)N4C(=O)CC#N)n2)n[nH]1 [Example 6-51],C (C represents a pEC50 value <6.7 (EC50>200 nM))
14,Cc1cc(Nc2cc3ncc(S(C)(=O)=O)cc3c(N[C@@H]3C[C@H]4CC[C@@H](C3)N4CCF)n2)n[nH]1 [Example 6-54],C (C represents a pEC50 value <6.7 (EC50>200 nM))
15,Cc1cc(Nc2cc3ncc(S(C)(=O)=O)cc3c(N[C@@H]3C[C@H]4CC[C@@H](C3)N4CCCF)n2)n[nH]1 [Example 6-55],C (C represents a pEC50 value <6.7 (EC50>200 nM))
16,Cc1cc(Nc2cc3ncc(S(C)(=O)=O)cc3c(N[C@@H]3C[C@H]4CC[C@@H](C3)N4[C@@H]3CCOC3=O)n2)n[nH]1 [Example 6-57],C (C represents a pEC50 value <6.7 (EC50>200 nM))
17,Cc1cc(Nc2cc3ncc(S(C)(=O)=O)cc3c(N[C@@H]3C[C@H]4CC[C@@H](C3)N4[C@@H]3CCOC3=O)n2)n[nH]1 [Example 6-58],C (C represents a pEC50 value <6.7 (EC50>200 nM))
18,COc1ccnc2cc(Nc3cc(C)[nH]n3)nc(N[C@@H]3C[C@H]4CC[C@@H](C3)N4C(=O)CN(C)C)c12 [Example 7-3],C (C represents a pEC50 value <6.7 (EC50>200 nM))
19,COc1ccnc2cc(Nc3cc(C)[nH]n3)nc(N[C@@H]3C[C@H]4CC[C@@H](C3)N4CCC#N)c12 [Example 7-6],A (A represents a pEC50 value ≥7.5 (EC50≤32 nM))
20,CCS(=O)(=O)N1[C@@H]2CC[C@H]1C[C@H](Nc1nc(Nc3cc(C)[nH]n3)c(F)c3ncccc13)C2 [Example 8-3],A (A represents a pEC50 value ≥7.5 (EC50≤32 nM))
21,Cc1cc(Nc2nc(N[C@@H]3C[C@H]4CC[C@@H](C3)N4C(=O)CN(C)C)c3cccnc3c2F)n[nH]1 [Example 8-7],C (C represents a pEC50 value <6.7 (EC50>200 nM))
22,Cc1cc(Nc2nc(NC3CC4CCC(C3)N4C(=O)C(C)O)c3cccnc3c2F)n[nH]1 (stereo not drawn) [Example 8-8],C (C represents a pEC50 value <6.7 (EC50>200 nM))
23,Cc1cc(Nc2nc(N[C@@H]3C[C@H]4CCC[C@@H](C3)N4C(=O)CN(C)C)c3cccnc3c2F)n[nH]1 [Example 8-15],C (C represents a pEC50 value <6.7 (EC50>200 nM))
24,Cc1cnc2c(F)c(Nc3cc(C)[nH]n3)nc(N[C@@H]3C[C@H]4CC[C@@H](C3)N4S(=O)(=O)N3CC(C#N)C3)c2c1 [Example 8-19],C (C represents a pEC50 value <6.7 (EC50>200 nM))
25,Cc1cnc2c(F)c(Nc3cc(C)[nH]n3)nc(N[C@@H]3C[C@H]4CC[C@@H](C3)N4S(=O)(=O)c3cccnc3)c2c1 [Example 8-20],C (C represents a pEC50 value <6.7 (EC50>200 nM))
